Results reported in patent publication US5187157A, “Peptide boronic acid inhibitors of trypsin-like proteases” (Du Pont Merck Pharmaceutical Company, priority 1988, dated 1993).

Legend:
plasma [1] = conditions: at 1 μM; Green et al.; cited from earlier work
chymotrypsin = chymotrypsin (Bos taurus, UniProt P00766); conditions: literature; cited from earlier work
rats = test: Survival after thrombin infusion following oral dosing; type: in vivo; conditions: 5 mg/kg orally in water; 500 units/kg thrombin infused thirty to sixty minutes later; water controls: all fourteen died
Text: Thirty to sixty minutes later, all rats received an infusion of 500 units/kg thrombin over a period of one minute. All fourteen rats given only water died within ten minutes of the thrombin infusion. In contrast only 8 out of 17 rats treated with the inhibitor-containing water died within ten minutes, and the remainder survived one hour, at which time they were euthanized.

Sprague Dawley CD Rats = test: Inhibition of Blood Coagulation Following In Vivo Oral Dosing (thrombin times of plasma)
Procedure: Male rats (Sprague Dawley CD Rats, 130-140 g, supplied by Charles River Labs, Inc., Wilmington, MA) were anesthetized with sodium pentobarbital (50 mg/kg, i.p.). A midline incision was made on the ventral surface of the neck, and a polyethylene catheter was inserted in one of the carotid arteries and exteriorized at the back of the neck. After recovery from anesthesia, control blood samples were taken from the carotid artery catheter, anticoagulated with sodium citrate, and centrifuged (2000×g, 10 minutes). Plasma was transferred to plastic tubes and kept on ice until it was assayed. Thrombin times were measured using a fibrometer, as described in Examples 125-127.
The vehicle employed was 5% dimethylsulfoxide in saline. Blood samples were taken at various times after oral dosing and assayed as described above. When clotting time exceeded 300 seconds, it is reported below as >300.

normal rabbit plasma = test: Thrombin times (TT), blood coagulation in vitro; type: biochemical; conditions: thrombin 4 μ/ml
Procedure: A mixture of 0.2 ml of normal rabbit plasma and 0.05 ml of buffer containing the inhibitor at 6 times the desired final concentration was warmed to 37° C. Clotting was initiated by addition of thrombin (0.05 ml at 6 times the final concentration). The thrombin used was purchased from Sigma Chemical Company (No. T-6634, activity 1190 NIH units per mg protein) and prepared in buffer. The buffer employed for both the inhibitor and the thrombin was 0.1 M Tris buffer (12.10 g/L), containing 0.154 M NaCl (8.84 g/L) and 2.5 mg/ml bovine serum albumin, pH 7.4. The clotting times, measured in seconds, were determined using a fibrometer. The effects of the inhibitor on blood clotting times compared with the blood clotting times of controls run in the absence of inhibitors, are shown in Table 6. Values represent the average of at least three determinations.

Male Lewis rats = test: In Vivo Inhibition of Blood Coagulation Following Oral, Colonic and Rectal Administration; conditions: mean for 3 rats
Procedure: Male Lewis rats weighing between 300-350 g were anesthetized with sodium pentobarbitol (50 mg/kg, i.p.) and the jugular vein was cannulated using a silastic tubing attached to a polyethylene 50 tubing. The tubing was exteriorized at the back of the neck and attached to a syringe through a stop cock. […] The blood samples were then transferred into vacutainers containing citrate buffer. Also, after each collection the cannula was flushed with saline. The blood samples were then centrifuged immediately (2500 rpm for 15 min) and 0.2 ml of the plasma samples were used for clotting time measurements. The clotting time measurements were carried out using a fibrometer as follows. First, plasma (0.2 ml) was placed in a fibro cup, and pH 7.4 Tris buffer (50 microliters) was added. The plasma buffer solution was incubated at 37° C. for 1 min, 50 microters of a 24 μ/ml thrombin solution in Tris buffer was then added, and clotting time in seconds was measured. When clotting time exceeded 300 seconds, it is reported below as >300.
The jugular vein-cannulated rats were allowed to recover from anesthesia before they were dosed orally. The protease inhibitor Ac-(D)Phe-Pro-boroArg--OH aqueous solution, consisting of 3 mg of inhibitor per kg weight of rat (approximately 1 mg/rat) in a volume of 0.75 ml of water per kg of rat, was administered by gavage.
A 3 cm incision was made in the abdomen of the jugular vein-cannulated rats while they were still under anesthesia. The colon was located and was tied off at both the beginning and the end. The protease inhibitor Ac-(D)Phe-Pro-boroArg--OH aqueous solution, consisting of 3 mg of inhibitor per kg weight of rat (approximately 1 mg/rat) in a volume of 1 ml of water per kg weight of rat, was injected at the beginning into the colon cavity. The incision was closed using wound clips.
The procedure for rectal administration in the jugular vein-cannulated rats was as described by Kamiya et al., J. Pharm. Sci., 71: 621 (1982). In brief, a device was made consisting of a 0.89 cm and a 0.71 cm silicon rubber septa connected by a 2 cm length of wire. This device was inserted into the rectum of the rat, the large septum first, and glued to the annus using suitable glue. Dosing was accomplished by injection through the exposed septum. The rectal dose was 3 mg of the protease inhibitor Ac-(D)Phe-Pro-boroArg--OH per kg weight of rat (approximately 1 mg/rat) in a volume of 0.6 ml of water per kg of rat.

plasma [2] = test: Heparin effect on plasma clotting times; type: biochemical; conditions: assuming molecular weight 15,000 and 150 units/mg
plasma [3] = conditions: 0.2-0.4 units of heparin per mL of plasma; cited from earlier work

Compound: CC1CNc2c(cccc2S(=O)(=O)N[C@@H](CCCNC(=N)N)C(=O)N2CC[C@@H](C)C[C@@H]2C(=O)O)C1 (stereo partly drawn) [(2R,4R)-4-methyl-1[N^2 -{(3-methyl-1,2,3,4-tetrahydro-8-quinolinyl)sulfonyl}-L-arginyl]-2-piperid inecarboxylic acid]
- increase of prothrombin times of plasma (plasma [1]): 2 fold

Compound: CC(=O)N[C@@H](Cc1ccccc1)B(O)O [(R)-1-acetamido-2-phenylethane boronic acid]
- Ki (chymotrypsin): 4 µM

Compound: CC(=O)N[C@H](Cc1ccccc1)C(=O)N1CCC[C@H]1C(=O)N[C@@H](CCCN=C(N)N)B(O)O.Cl [Ac-(D)Phe-Pro-boroArg-OH, Ac-(D)Phe-Pro-boroArg-OH.HCl]
- rats died within ten minutes of the thrombin infusion (rats): 8 out of 17
- clotting times (thrombin times) (Sprague Dawley CD Rats; oral gavage 1 mg, 1 hr): > 300 s
- clotting times (thrombin times) (Sprague Dawley CD Rats; oral gavage 1 mg, 2 hr): > 300 s
- clotting times (thrombin times) (Sprague Dawley CD Rats; oral gavage 1 mg, 3 hr): > 300 s
- clotting times (thrombin times) (Sprague Dawley CD Rats; oral gavage 1 mg, 4 hr, mean ± standard deviation): 47 ± 4 s
- clotting times (thrombin times) (Sprague Dawley CD Rats; oral gavage 1 mg, 6 hr, mean ± standard deviation): 46 ± 3 s
- clotting times (thrombin times) (Sprague Dawley CD Rats; oral gavage 1 mg, .5 hr): > 300 s
- clotting times (thrombin times) (Sprague Dawley CD Rats; oral gavage 2 mg, 4 hr, mean ± standard deviation): 54 ± 29 s
- clotting times (thrombin times) (Sprague Dawley CD Rats; oral gavage 2 mg, 6 hr, mean ± standard deviation): 44 ± 4 s
- clotting times (thrombin times) (Sprague Dawley CD Rats; oral gavage 2 mg, .5 hr): > 300 s
- clotting times (thrombin times) (Sprague Dawley CD Rats; oral gavage 10 mg, 1 hr): > 300 s
- clotting times (thrombin times) (Sprague Dawley CD Rats; oral gavage 10 mg, 2 hr): > 300 s
- clotting times (thrombin times) (Sprague Dawley CD Rats; oral gavage 10 mg, 3 hr): > 300 s
- clotting times (thrombin times) (Sprague Dawley CD Rats; oral gavage 10 mg, .5 hr): > 300 s
- Thrombin Times (normal rabbit plasma; inhibitor 50 nM, mean ± standard deviation): 32.7 ± 0.8 s
- Thrombin Times (normal rabbit plasma; inhibitor 100 nM, mean ± standard deviation): 62.4 ± 7.2 s
- Thrombin Times (normal rabbit plasma; inhibitor 150 nM, terminated at 300 seconds): > 300 s
- Clotting Time (Male Lewis rats; colonic 3 mg/kg, 0.0 hr): 59.4 s
- Clotting Time (Male Lewis rats; colonic 3 mg/kg, 0.5 hr): > 300 s
- Clotting Time (Male Lewis rats; colonic 3 mg/kg, 1.0 hr): > 300 s
- Clotting Time (Male Lewis rats; colonic 3 mg/kg, 2.0 hr): > 300 s
- Clotting Time (Male Lewis rats; colonic 3 mg/kg, 4.0 hr): > 300 s
- Clotting Time (Male Lewis rats; colonic 3 mg/kg, 5.0 hr): > 300 s
- Clotting Time (Male Lewis rats; oral 3 mg/kg, 0.00 hr): 57.3 s
- Clotting Time (Male Lewis rats; oral 3 mg/kg, 0.25 hr): > 300 s
- Clotting Time (Male Lewis rats; oral 3 mg/kg, 0.50 hr): > 300 s
- Clotting Time (Male Lewis rats; oral 3 mg/kg, 1.00 hr): > 300 s
- Clotting Time (Male Lewis rats; oral 3 mg/kg, 2.00 hr): > 300 s
- Clotting Time (Male Lewis rats; oral 3 mg/kg, 3.00 hr): > 300 s
- Clotting Time (Male Lewis rats; oral 3 mg/kg, 4.00 hr): > 300 s
- Clotting Time (Male Lewis rats; rectal 3 mg/kg, 0 hr): 66.4 s
- Clotting Time (Male Lewis rats; rectal 3 mg/kg, 0.25 hr): > 300 s
- Clotting Time (Male Lewis rats; rectal 3 mg/kg, 0.5 hr): > 300 s
- Clotting Time (Male Lewis rats; rectal 3 mg/kg, 1.0 hr): > 300 s
- Clotting Time (Male Lewis rats; rectal 3 mg/kg, 2.0 hr): > 300 s
- Clotting Time (Male Lewis rats; rectal 3 mg/kg, 4.0 hr): > 300 s

Compound: heparin
- molar concentration increasing clotting times 2-2.5 fold (plasma [2]): 86 to 170 nM
- increase of clotting times (plasma [3]): 2-2.5 fold
